Reference: US10428030B2, “Heterocycle derivatives and their use for the treatment of CNS disorders” (Trillium Therapeutics Inc., priority 2015, dated 2019)

Legend:
[1] = test system: Frings audiogenic seizure-susceptible mice; assay: Frings audiogenic seizure (AGS)-susceptible mouse model; format: in vivo
From the text: Frings audiogenic seizure (AGS)-susceptible mice model examines the ability of an investigational drug to alter the onset and/or severity of seizures in a genetic mouse model of seizure susceptibility. Mice are genetically susceptible to sound-induced reflex seizures. Their seizure phenotype is characterized by wild running, loss of righting reflex, tonic flexion, and tonic extension in response to high-intensity sound stimulation. […] For example, the prototypical anticonvulsants phenytoin and ethosuximide display widely divergent clinical spectrums in humans, but are both active against sound-induced seizures in mice. Yet, the preclinical utility of this animal model rests in the useful information that can be obtained within a genetically susceptible model of seizures. Further, efficacy in this model provides proof of concept of brain bioavailability following systemic administration. The Frings AGS-susceptible mouse has a well-validated epilepsy phenotype that makes it particularly useful as a screening model. Beginning at about 21 days of age, Frings AGS-susceptible mice display prominent seizure activity in response to a high-intensity sound stimulus. They then remain susceptible to sound throughout their life. This is in stark contrast to the DBA2J AGS-susceptible mouse, which is the other common model of sound-induced seizures, as DBA2J mice are only susceptible to sound-induced seizures during a narrow developmental window (post-natal days 18-30). Thus, the Frings AGS-susceptible mouse seizures respond to a wide range of CNS-active drugs and display sound-induced seizures throughout their lifetime. In this regard, Frings AGS-susceptible mice are a highly useful screening model for the identification and characterization of compounds potentially effective against inherited epilepsy.
Male and female Frings audiogenic seizure-susceptible mice (18-25 g) are maintained in an in-house colony at the University of Utah. For each screening test, groups of 8 mice each are treated i.p. with varying doses of the investigational compound. At the time of peak effect as determined in the MES test (Test 4 in CF1 mice), individual mice are placed in a round plexiglass jar (diameter, 15 cm, height, 18 cm) and exposed to a sound stimulus of 110 decibels (11 KHz) delivered for 20 sec. Mice are observed for 25 sec for the presence or absence of hind limb tonic extension. Mice not displaying hind limb tonic extension are considered protected. The severity of a seizure may also be quantitated by assigning a numerical score to the observed response, e.g. no response—0; wild running for <10 sec—1; wild running for >10 sec—2; clonic seizure—3; forelimb extension/hind limb flexion—4; tonic seizure—5.

amygdala kindled rat = assay: Amygdala kindled rat model (focal seizures); format: in vivo; conditions: <100 mg/kg i.p., vs vehicle controls
From the text: Amygdala kindling model is an animal model for complex partial seizures, which is the most common type of epilepsy in adults and is often drug resistant. Exemplary compounds of the application were effective in this model.

MTLE mice = assay: Model of mesial temporal lobe epilepsy (mTLE), hippocampal paroxysmal discharges; format: in vivo, mouse; conditions: for Effect (% baseline): HPD; for Effect (% baseline) / Mean HPD Counts: mice 4 weeks after intra-hippocampal KA
From the text: The MTLE mouse model recapitulates many of the characteristics observed in human patients with temporal lobe epilepsy (TLE). The MTLE mouse is characterized by an initial neurotoxic event, a unilateral intrahippocampal injection of kainic acid (KA) into the dorsal hippocampus, which induces non-convulsive SE lasting several hours. This initial event is followed by a latent phase. Two to three weeks after KA injection, spontaneous recurrent hippocampal paroxysmal discharges (HPD) are only recorded in the epileptic hippocampus and remain stable and stereotyped for the whole life of the animal. These HPDs occur spontaneously about 30-60 times per hour when the animals are in a state of quiet wakefulness, generally last 15-20 sec and are associated with behavioral arrest and/or mild motor automatisms. Adult, male […] mice are stereotaxically injected with kainate (1 nmol in 100 nL) and implanted with 1 bipolar electrode in the dorsal hippocampus, and then allowed to recover for four weeks prior to evaluation in the screening protocol. Using a group size of 4 MTLE mice per dose of investigational compound, the compounds are typically first tested using the 6 Hz 44 mA ED50 value. […] For all acute studies, drug conditions are counter-balanced in MTLE mice over a two week period using a Latin square dosing protocol. Animals are used as their own controls. Digital EEG recordings are performed on freely moving animals for 20 minutes pre-injection (reference period) and 90 minutes post-injection. Data are analyzed for the period of 10 minutes before and 10 minutes after peak time of effect of the investigational compound, as determined from the 6 Hz 44 mA seizure test. The effects of the injected compound are compared to the reference period. Any accompanying effect on animal behavior is noted. Data are presented as the raw number of HPDs during the analyzed 20 min period (10 minutes before and 10 minutes after peak time of effect of compound) for each MTLE mouse, group mean number of HPDs, and effect on suppression as represented by percent of baseline HPD values.

[2] = test system: Male, Sprague-Dawley rats; assay: Spinal Nerve Injury (SNI) model (neuropathic pain); format: in vivo, rat; conditions: 60 mg/kg i.p.
From the text: The SNI model of neuropathic pain was developed in rats using the procedure described by Decostered and Woolf, Pain 2000, 87: 149-158. Under isoflurane anesthesia, the skin on the lateral surface of the thigh was incised and a section was made directly through the biceps femoris muscle exposing the sciatic nerve and its three terminal branches: the sural, common peroneal and tibial nerves. The common peroneal and the tibial nerves were tight-ligated with 6-0 suture and sectioned distal to the ligation, removing 2-4 mm of the distal nerve stump. Extreme care was taken to avoid any contact with or stretching of the intact sural nerve. Following surgery, hemostasis was confirmed and the muscles were sutured in layers using 4-0 suture and the skin was closed with 4-0 suture and metal clips.
Male, Sprague-Dawley rats were used. Testing of compounds was done 21 days post-operatively. After initial basal readings were taken, the test compound or vehicle was administered. The readings were taken again 30, 60 and 180 min after the compound/vehicle administration. Both the control (uninjured) and the SNI paw were tested. The presence of mechanical allodynia was assessed using the Dynamic Plantar Aesthesiometer (Ugo Basile, Italy) which is a modified version of the Von Frey Hair test. […] A single reading was taken per timepoint. […]
Cold allodynia was assessed by using the acetone test. […]

## O=C1COc2cc(OCc3ccc(OC(F)F)cc3)ccc2N1 [Compound I(B)]
[1]; Mus musculus, ip, sound-induced seizures
  ED50: 13 ± 2 mg/kg
[1]; i.p.
  effect on AGS: dose-dependently blocks AGS
Amygdala kindled rat
  suppression of fully kindled (stage 5) seizures: dose related suppression of fully kindled (stage 5) seizures
MTLE mice; after 80 mg/kg
  Effect (% baseline): 42.0 % baseline
  Mean HPD Counts: 7.25
MTLE mice; after 160 mg/kg
  Effect (% baseline): 17.9 % baseline
  Mean HPD Counts: 4.25
MTLE mice; dose of 125 mg/kg
  effect against spontaneous recurrent hippocampal paroxysmal discharges (HPD): effective
[2]
  mechanical allodynia in the denervated paw (Von Frey test): effective at reducing the mechanical allodynia
[2]; neuropathic rats
  cold allodynia: significantly reduced
